PubChem BioAssay (NCI)
Values after ≈ are worked out from the molar mass of the structure shown.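 Grown in 96-well plates, cells were treated for 48 hours with each compound at five concentrations. Insufficient inhibition: endpoint recorded as highest concentration tested. The concentration for 50% growth inhibition is given as GI50. TGI: total growth inhibition.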

Experiments:
Assay in all cases: inhibition of tumour cell growth, NCI panel, 48 h; in the data active = GI50 below about 0.43 µM; inactive = the rest
MDA-MB-231 breast = test system: MDA-MB-231 breast
HCT-116 colon = test system: HCT-116 colon
SF-295 CNS = test system: SF-295 CNS
HCC-2998 colon = test system: HCC-2998 colon
SK-MEL-5 melanoma = test system: SK-MEL-5 melanoma
U251 CNS = test system: U251 CNS
A549 NSCLC = test system: A549 NSCLC
HL-60(TB) leukemia = test system: HL-60(TB) leukemia
NCI-H226 lung = test system: NCI-H226 lung
OVCAR-5 ovarian = test system: OVCAR-5 ovarian
MOLT-4 leukemia = test system: MOLT-4 leukemia
DU-145 prostate = test system: DU-145 prostate
HT29 colon = test system: HT29 colon
A498 renal = test system: A498 renal
T-47D breast = test system: T-47D breast
SK-OV-3 ovarian = test system: SK-OV-3 ovarian
NCI-H23 lung = test system: NCI-H23 lung
UACC-257 melanoma = test system: UACC-257 melanoma
ACHN renal = test system: ACHN renal
RPMI-8226 leukemia = test system: RPMI-8226 leukemia
SNB-75 CNS = test system: SNB-75 CNS
RXF 393 renal = test system: RXF 393 renal
SF-268 CNS = test system: SF-268 CNS
NCI-H460 lung = test system: NCI-H460 lung
HOP-92 NSCLC = test system: HOP-92 NSCLC
SR leukemia = test system: SR leukemia
MALME-3M melanoma = test system: MALME-3M melanoma
HCT-15 colon = test system: HCT-15 colon
COLO 205 colon = test system: COLO 205 colon
SF-539 CNS = test system: SF-539 CNS
HS 578T breast = test system: HS 578T breast
SW-620 colon = test system: SW-620 colon
IGROV1 ovarian = test system: IGROV1 ovarian
MCF7 breast = test system: MCF7 breast
LOX IMVI melanoma = test system: LOX IMVI melanoma
OVCAR-8 ovarian = test system: OVCAR-8 ovarian
OVCAR-4 ovarian = test system: OVCAR-4 ovarian
NCI/ADR-RES ovarian = test system: NCI/ADR-RES ovarian
OVCAR-3 ovarian = test system: OVCAR-3 ovarian
786-0 renal = test system: 786-0 renal
UO-31 renal = test system: UO-31 renal
NCI-H522 lung = test system: NCI-H522 lung
MDA-MB-435 = test system: MDA-MB-435
PC-3 prostate = test system: PC-3 prostate
M14 melanoma = test system: M14 melanoma
K-562 leukemia = test system: K-562 leukemia
MDA-N = test system: MDA-N
TK-10 renal = test system: TK-10 renal
SK-MEL-28 melanoma = test system: SK-MEL-28 melanoma
KM12 colon = test system: KM12 colon
SN12C renal = test system: SN12C renal
CCRF-CEM leukemia = test system: CCRF-CEM leukemia
UACC-62 melanoma = test system: UACC-62 melanoma
HOP-62 NSCLC = test system: HOP-62 NSCLC
EKVX NSCLC = test system: EKVX NSCLC
SNB-19 CNS = test system: SNB-19 CNS
SK-MEL-2 melanoma = test system: SK-MEL-2 melanoma
CAKI-1 renal = test system: CAKI-1 renal
BT-549 breast = test system: BT-549 breast

Cc1ccc2c(c1)CC1(Cc3c(C)cccc3C1=O)C2=O (stereo not given)
89.7 µM: TGI (SNB-75 CNS)
87.4 µM: TGI (HS 578T breast)
71.9 µM: TGI (HOP-62 NSCLC)
> 100 µM: TGI (MDA-MB-231 breast) | TGI (HCT-116 colon) | TGI (SF-295 CNS) | TGI (HCC-2998 colon) | TGI (SK-MEL-5 melanoma) | TGI (U251 CNS) | TGI (A549 NSCLC) | TGI (HL-60(TB) leukemia) | TGI (NCI-H226 lung) | TGI (OVCAR-5 ovarian) | TGI (MOLT-4 leukemia) | TGI (DU-145 prostate) | TGI (HT29 colon) | TGI (A498 renal) | TGI (T-47D breast) | TGI (SK-OV-3 ovarian) | TGI (NCI-H23 lung) | TGI (UACC-257 melanoma) | TGI (ACHN renal) | TGI (RPMI-8226 leukemia) | TGI (RXF 393 renal) | TGI (SF-268 CNS) | TGI (NCI-H460 lung) | TGI (HOP-92 NSCLC) | TGI (SR leukemia) | TGI (MALME-3M melanoma) | TGI (HCT-15 colon) | TGI (COLO 205 colon) | TGI (SF-539 CNS) | TGI (SW-620 colon) | TGI (IGROV1 ovarian) | TGI (MCF7 breast) | TGI (LOX IMVI melanoma) | TGI (OVCAR-8 ovarian) | TGI (OVCAR-4 ovarian) | TGI (NCI/ADR-RES ovarian) | TGI (OVCAR-3 ovarian) | TGI (786-0 renal) | TGI (UO-31 renal) | TGI (NCI-H522 lung) | TGI (MDA-MB-435) | TGI (PC-3 prostate) | TGI (M14 melanoma) | TGI (K-562 leukemia) | TGI (MDA-N) | TGI (TK-10 renal) | TGI (SK-MEL-28 melanoma) | TGI (KM12 colon) | TGI (SN12C renal) | TGI (CCRF-CEM leukemia) | TGI (UACC-62 melanoma) | TGI (EKVX NSCLC) | TGI (SNB-19 CNS)

NC1=C(c2nc(-c3ccccc3)cs2)C(c2ccc(Br)cc2)c2c(c3ccccc3oc2=O)O1 (stereo not given)
94 µg/mL: TGI (NCI-H226 lung)
91.4 µg/mL: TGI (HS 578T breast)
99.9 µg/mL: TGI (OVCAR-4 ovarian)
inactive: GI50 (MDA-MB-231 breast) 39.2 µg/mL (≈ 74.1 µM) | GI50 (HCT-116 colon) 79.6 µg/mL (≈ 150 µM) | GI50 (SF-295 CNS) > 150 µg/mL | GI50 (HCC-2998 colon) 130 µg/mL (≈ 246 µM) | GI50 (SK-MEL-5 melanoma) > 150 µg/mL | GI50 (U251 CNS) 48.2 µg/mL (≈ 91.1 µM) | GI50 (A549 NSCLC) 46 µg/mL (≈ 86.9 µM) | GI50 (HL-60(TB) leukemia) 21.9 µg/mL (≈ 41.4 µM) | GI50 (NCI-H226 lung) 22.3 µg/mL (≈ 42.1 µM) | GI50 (OVCAR-5 ovarian) > 150 µg/mL | GI50 (MOLT-4 leukemia) 33 µg/mL (≈ 62.3 µM) | GI50 (DU-145 prostate) 128 µg/mL (≈ 242 µM) | GI50 (HT29 colon) 148 µg/mL (≈ 279 µM) | GI50 (A498 renal) 33.9 µg/mL (≈ 64 µM) | GI50 (T-47D breast) 44.3 µg/mL (≈ 83.8 µM) | GI50 (SK-OV-3 ovarian) 60.1 µg/mL (≈ 114 µM) | GI50 (NCI-H23 lung) 71 µg/mL (≈ 134 µM) | GI50 (UACC-257 melanoma) > 150 µg/mL | GI50 (ACHN renal) 129 µg/mL (≈ 243 µM) | GI50 (SNB-75 CNS) 2.39 µg/mL (≈ 4.52 µM) | GI50 (RXF 393 renal) 40.7 µg/mL (≈ 76.9 µM) | GI50 (SF-268 CNS) 89.7 µg/mL (≈ 169 µM) | GI50 (SK-MEL-2 melanoma) 89 µg/mL (≈ 168 µM) | GI50 (NCI-H460 lung) 66.8 µg/mL (≈ 126 µM) | GI50 (HOP-92 NSCLC) 38.4 µg/mL (≈ 72.6 µM) | GI50 (SR leukemia) 55.2 µg/mL (≈ 104 µM) | GI50 (MALME-3M melanoma) > 150 µg/mL | GI50 (HCT-15 colon) 70.1 µg/mL (≈ 132 µM) | GI50 (COLO 205 colon) 78.1 µg/mL (≈ 148 µM) | GI50 (SF-539 CNS) 104 µg/mL (≈ 197 µM) | GI50 (HS 578T breast) 30.4 µg/mL (≈ 57.4 µM) | GI50 (CAKI-1 renal) 70 µg/mL (≈ 132 µM) | GI50 (SW-620 colon) 73.9 µg/mL (≈ 140 µM) | GI50 (IGROV1 ovarian) 96 µg/mL (≈ 181 µM) | GI50 (MCF7 breast) > 150 µg/mL | GI50 (LOX IMVI melanoma) > 150 µg/mL | GI50 (OVCAR-8 ovarian) 112 µg/mL (≈ 211 µM) | GI50 (OVCAR-4 ovarian) 34.3 µg/mL (≈ 64.9 µM) | GI50 (NCI/ADR-RES ovarian) > 150 µg/mL | GI50 (OVCAR-3 ovarian) > 150 µg/mL | GI50 (786-0 renal) 75.6 µg/mL (≈ 143 µM) | GI50 (NCI-H522 lung) 47.1 µg/mL (≈ 89 µM) | GI50 (MDA-MB-435) > 150 µg/mL | GI50 (PC-3 prostate) > 150 µg/mL | GI50 (M14 melanoma) 90.1 µg/mL (≈ 170 µM) | GI50 (K-562 leukemia) 77.1 µg/mL (≈ 146 µM) | GI50 (MDA-N) 63.7 µg/mL (≈ 120 µM) | GI50 (TK-10 renal) > 150 µg/mL | GI50 (SK-MEL-28 melanoma) 79.9 µg/mL (≈ 151 µM) | GI50 (KM12 colon) > 150 µg/mL | GI50 (SN12C renal) 85.9 µg/mL (≈ 162 µM) | GI50 (CCRF-CEM leukemia) 66.9 µg/mL (≈ 126 µM) | GI50 (UACC-62 melanoma) 52.1 µg/mL (≈ 98.5 µM) | GI50 (HOP-62 NSCLC) 116 µg/mL (≈ 219 µM) | GI50 (EKVX NSCLC) 50.2 µg/mL (≈ 94.8 µM) | GI50 (SNB-19 CNS) 58.3 µg/mL (≈ 110 µM)
141 µg/mL: TGI (RXF 393 renal)
102 µg/mL: TGI (HOP-92 NSCLC)
36.7 µg/mL: TGI (SNB-75 CNS)
> 150 µg/mL: TGI (MDA-MB-231 breast) | TGI (HCT-116 colon) | TGI (SF-295 CNS) | TGI (HCC-2998 colon) | TGI (SK-MEL-5 melanoma) | TGI (U251 CNS) | TGI (A549 NSCLC) | TGI (OVCAR-5 ovarian) | TGI (DU-145 prostate) | TGI (HT29 colon) | TGI (A498 renal) | TGI (T-47D breast) | TGI (SK-OV-3 ovarian) | TGI (NCI-H23 lung) | TGI (UACC-257 melanoma) | TGI (ACHN renal) | TGI (SF-268 CNS) | TGI (SK-MEL-2 melanoma) | TGI (NCI-H460 lung) | TGI (SR leukemia) | TGI (MALME-3M melanoma) | TGI (HCT-15 colon) | TGI (COLO 205 colon) | TGI (SF-539 CNS) | TGI (CAKI-1 renal) | TGI (SW-620 colon) | TGI (IGROV1 ovarian) | TGI (MCF7 breast) | TGI (LOX IMVI melanoma) | TGI (OVCAR-8 ovarian) | TGI (NCI/ADR-RES ovarian) | TGI (OVCAR-3 ovarian) | TGI (786-0 renal) | TGI (NCI-H522 lung) | TGI (MDA-MB-435) | TGI (PC-3 prostate) | TGI (M14 melanoma) | TGI (K-562 leukemia) | TGI (MDA-N) | TGI (TK-10 renal) | TGI (SK-MEL-28 melanoma) | TGI (KM12 colon) | TGI (SN12C renal) | TGI (CCRF-CEM leukemia) | TGI (UACC-62 melanoma) | TGI (HOP-62 NSCLC) | TGI (EKVX NSCLC) | TGI (SNB-19 CNS)
97.2 µg/mL: TGI (HL-60(TB) leukemia)
118 µg/mL: TGI (MOLT-4 leukemia)

Cc1ccc(N2CCC3(CC2)OCCO3)cc1
> 100 µM: TGI (MDA-MB-231 breast) | TGI (HCT-116 colon) | TGI (SF-295 CNS) | TGI (HCC-2998 colon) | TGI (SK-MEL-5 melanoma) | TGI (U251 CNS) | TGI (A549 NSCLC) | TGI (HL-60(TB) leukemia) | TGI (NCI-H226 lung) | TGI (OVCAR-5 ovarian) | TGI (MOLT-4 leukemia) | TGI (DU-145 prostate) | TGI (HT29 colon) | TGI (A498 renal) | TGI (T-47D breast) | TGI (SK-OV-3 ovarian) | TGI (NCI-H23 lung) | TGI (UACC-257 melanoma) | TGI (ACHN renal) | TGI (RPMI-8226 leukemia) | TGI (SNB-75 CNS) | TGI (BT-549 breast) | TGI (RXF 393 renal) | TGI (SF-268 CNS) | TGI (SK-MEL-2 melanoma) | TGI (NCI-H460 lung) | TGI (HOP-92 NSCLC) | TGI (SR leukemia) | TGI (MALME-3M melanoma) | TGI (HCT-15 colon) | TGI (COLO 205 colon) | TGI (SF-539 CNS) | TGI (HS 578T breast) | TGI (CAKI-1 renal) | TGI (SW-620 colon) | TGI (IGROV1 ovarian) | TGI (OVCAR-8 ovarian) | TGI (OVCAR-4 ovarian) | TGI (NCI/ADR-RES ovarian) | TGI (OVCAR-3 ovarian) | TGI (786-0 renal) | TGI (UO-31 renal) | TGI (NCI-H522 lung) | TGI (MDA-MB-435) | TGI (PC-3 prostate) | TGI (M14 melanoma) | TGI (K-562 leukemia) | TGI (MDA-N) | TGI (TK-10 renal) | TGI (SK-MEL-28 melanoma) | TGI (KM12 colon) | TGI (SN12C renal) | TGI (CCRF-CEM leukemia) | TGI (UACC-62 melanoma) | TGI (HOP-62 NSCLC) | TGI (EKVX NSCLC) | TGI (SNB-19 CNS)
